Source: patent US5489591A, “S-triazine derivative and remedy for estrogen-dependent disease containing said derivative as effective component” (Zenyaku Kogyo Kabushiki Kaisha, priority 1992, dated 1996)

Columns and labels:
[1] = target: T1, cholesterol side-chain cleaving enzyme (Sus scrofa, UniProt P10612); assay: Inhibitory activity against cholesterol side-chain cleaving enzyme (Pharmacological Test 2, porcine adrenal mitochondria); assay type: biochemical; conditions: substrate 5-cholesten-3β-ol 5.0×10^-6 M, read-out: SCC-IC50
T1 construct: porcine adrenal mitochondria; from tissue; host or cells: porcine adrenal mitochondria
T1 sequence (P10612 40-520): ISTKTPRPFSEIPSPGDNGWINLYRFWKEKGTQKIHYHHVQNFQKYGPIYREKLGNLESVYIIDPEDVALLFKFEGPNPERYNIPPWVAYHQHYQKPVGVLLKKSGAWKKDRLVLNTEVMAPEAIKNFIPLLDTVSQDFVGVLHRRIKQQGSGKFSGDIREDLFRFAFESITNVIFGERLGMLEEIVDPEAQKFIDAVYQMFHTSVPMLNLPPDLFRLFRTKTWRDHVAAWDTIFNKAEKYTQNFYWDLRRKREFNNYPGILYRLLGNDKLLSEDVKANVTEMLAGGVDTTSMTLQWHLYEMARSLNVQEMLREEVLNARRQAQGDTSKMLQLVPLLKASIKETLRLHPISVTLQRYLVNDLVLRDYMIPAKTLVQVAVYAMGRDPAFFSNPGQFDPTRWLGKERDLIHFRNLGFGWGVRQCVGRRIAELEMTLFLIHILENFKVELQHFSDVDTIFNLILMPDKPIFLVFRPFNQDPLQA
Protocol: Inhibitory activity against cholesterol side-chain cleaving enzyme was determined according to the method of M. Shikita and P. F. Hall [Proc. Nat. […] Briefly, the each compound to be tested was added to a reaction vial containing porcine adrenal mitochondria, [4-^14 C]5-cholesten-3β-ol (250 Bq/5 nmol) and NADPH. […] These were separated by extracting the reaction mixture with methylene-dichloride followed by purifying with thin-layer chromatography. Substrate (5-cholesten-3β-ol) and reaction product (3β-hydroxypregn-5-en-20-one) were respectively measured by a liquid scintillation counter. The measured quantity of 3β-hydroxypregn-5-en-20-one was used to determine cholesterol side-chain cleaving activity which was compared with the activity when incubated without inhibitor to calculate inhibition ratio (%).

[2] = target: T2, Aromatase (Homo sapiens, UniProt P11511); assay: Aromatase inhibitory activity (Pharmacological Test 1, human placenta microsome); assay type: biochemical; conditions: substrate 4-androsten-3,17-dione 1.0×10^-6 M, read-out: AI-IC50
T2 construct: human placenta microsome; from tissue; host or cells: human placenta microsomes
T2 sequence (P11511 1-503): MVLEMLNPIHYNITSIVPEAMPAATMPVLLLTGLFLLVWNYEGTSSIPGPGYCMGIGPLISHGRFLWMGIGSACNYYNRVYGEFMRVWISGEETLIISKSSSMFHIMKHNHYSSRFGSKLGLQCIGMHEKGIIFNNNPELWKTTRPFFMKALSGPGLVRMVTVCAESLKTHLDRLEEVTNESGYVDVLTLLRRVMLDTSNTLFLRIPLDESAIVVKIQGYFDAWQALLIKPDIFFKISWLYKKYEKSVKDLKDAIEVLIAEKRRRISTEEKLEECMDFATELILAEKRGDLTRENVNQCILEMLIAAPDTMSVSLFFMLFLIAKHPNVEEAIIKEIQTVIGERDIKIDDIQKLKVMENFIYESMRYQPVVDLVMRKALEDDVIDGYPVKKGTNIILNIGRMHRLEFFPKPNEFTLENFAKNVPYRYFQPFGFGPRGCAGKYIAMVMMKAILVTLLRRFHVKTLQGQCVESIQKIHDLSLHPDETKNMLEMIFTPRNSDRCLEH
Protocol: Aromatase inhibitory activity was determined according to the method of E. A. Thompson and P. K. Siiteri [J. Biol. Chem., 249, 5364-5372 (1974)]. The each compound to be tested was added to a reaction vial containing human placenta microsome, [1β,2 β-^3 H]4-androsten-3,17-dione (3.3 kBq/500 pmol) and NADPH. […] The obtained [^3 H]H2 O was measured by a liquid scintillation counter. The measured quantity of [3H]H20 was used to determine aromatase activity, and was compared with the activity when incubated without inhibitor to calculate inhibition ratio (%).

IC50 [1]	IC50 [2]	SMILES
> 100000 nM	10 nM	CN(C)c1nc(N2CCOCC2)nc(-n2ccnc2)n1 [Compound 1, 2-(1-Imidazolyl)-4-dimethylamino-6-morpholino-1,3,5-triazine]
> 100000 nM	1300 nM	CN(C)c1nc(N2CCCC2)nc(-n2ccnc2)n1 [Compound 2, 2-(1-Imidazolyl)-4-dimethylamino-6-(1-pyrrolidinyl)-1,3,5-triazine]
> 100000 nM	770 nM	CN(C)c1nc(N2CCCCC2)nc(-n2ccnc2)n1 [Compound 3, 2-(1-Imidazolyl)-4-dimethylamino-6-piperidino-1,3,5-triazine]
> 100000 nM	200 nM	Cc1ncn(-c2nc(N(C)C)nc(-n3ccnc3)n2)c1C [Compound 5, 2-(1-Imidazolyl)-4-dimethylamino-6-(4,5-dimethyl-1-imidazolyl)-1,3,5-triazine]
> 100000 nM	4300 nM	CC(C)c1nccn1-c1nc(N(C)C)nc(-n2ccnc2)n1 [Compound 6, 2-(1-Imidazolyl)-4-(2-isopropyl-1-imidazolyl)-6-dimethylamino-1,3,5-triazine]
54000 nM	11 nM	c1ccc(N2CCN(c3nc(N4CCOCC4)nc(-n4ccnc4)n3)CC2)nc1 [Compound 8, 2-(1-Imidazolyl)-4-morpholino-6-[4-(2-pyridyl)-1-piperazinyl]-1,3,5-triazine]
15000 nM	17 nM	c1ccc(CN2CCN(c3nc(N4CCOCC4)nc(-n4ccnc4)n3)CC2)cc1 [Compound 9, 2-(4-Benzyl-1-piperazinyl)-4-(1-imidazolyl)-6-morpholino-1,3,5-triazine]
> 100000 nM	31 nM	CC1CN(c2nc(N3CCOCC3)nc(-n3ccnc3)n2)CC(C)O1 (centres unmarked) [Compound 10, 2-(1-Imidazolyl)-4-(2,6-dimethylmorpholino)-6-morpholino-1,3,5-triazine]
19000 nM	11 nM	CC1CC(C)CN(c2nc(N3CCOCC3)nc(-n3ccnc3)n2)C1 (centres unmarked) [Compound 11, 2-(1-Imidazolyl)-4-(3,5-dimethylpiperidino)-6-morpholino-1,3,5-triazine]
> 100000 nM	24 nM	c1cn(-c2nc(N3CCOCC3)nc(N3CCC4(CC3)OCCO4)n2)cn1 [Compound 12, 2-(4,4-Ethylenedioxypiperidino)-4-(1-imidazolyl)-6-morpholino-1,3,5-triazine]
31000 nM	6.7 nM	CN(c1ccccc1)c1nc(N2CCOCC2)nc(-n2ccnc2)n1 [Compound 14, 2-(1-Imidazolyl)-4-(N-methyl-N-phenylamino)-6-morpholino-1,3,5-triazine]
> 100000 nM	310 nM	c1cn(-c2nc(N3CCCC3)nc(N3CCCC3)n2)cn1 [Compound 17, 2-(1-Imidazolyl)-4,6-bis(1-pyrrolidinyl)-1,3,5-triazine]
> 100000 nM	310 nM	c1cn(-c2nc(N3CCCCC3)nc(N3CCCCC3)n2)cn1 [Compound 18, 2-(1-Imidazolyl)-4,6-dipiperidino-1,3,5-triazine]
100000 nM	5.1 nM	c1cn(-c2nc(N3CCSCC3)nc(N3CCSCC3)n2)cn1 [Compound 21, 2-(1-Imidazolyl)-4,6-bis(thiomorpholino)-1,3,5-triazine]
> 100000 nM	21 nM	c1cn(-c2nc(N3CCOCC3)nc(-n3ccnc3)n2)cn1 [Compound 23, 2,4-Bis(1-imidazolyl)-6-morpholino-1,3,5-triazine]
80000 nM	550 nM	CN(C)c1nc(-n2ccnc2)nc(-n2ccnc2)n1 [Compound 24, 2,4-Bis(1-imidazolyl)-6-dimethylamino-1,3,5-triazine]
25000 nM	60 nM	CCN(CC)c1nc(-n2ccnc2)nc(-n2ccnc2)n1 [Compound 25, 2,4-Bis(1-imidazolyl)-6-diethylamino-1,3,5-triazine]
> 100000 nM	62 nM	c1cn(-c2nc(N3CCCC3)nc(-n3ccnc3)n2)cn1 [Compound 26, 2,4-Bis(1-imidazolyl)-6-(1-pyrrolidinyl)-1,3,5-triazine]
> 100000 nM	64 nM	c1cn(-c2nc(N3CCCCC3)nc(-n3ccnc3)n2)cn1 [Compound 27, 2,4-Bis(1-imidazolyl)-6-piperidino-1,3,5-triazine]
9500 nM	62 nM	c1ccc(C2CCN(c3nc(-n4ccnc4)nc(-n4ccnc4)n3)CC2)cc1 [Compound 28, 2,4-Bis(1-imidazolyl)-6-(4-phenylpiperidino)-1,3,5-triazine]
75000 nM	230 nM	CN1CCN(c2nc(-n3ccnc3)nc(-n3ccnc3)n2)CC1 [Compound 29, 2,4-Bis (1-imidazolyl)-6-(4-methyl-1-piperazinyl)-1,3,5-triazine]
65000 nM	220 nM	c1ccc(N2CCN(c3nc(-n4ccnc4)nc(-n4ccnc4)n3)CC2)cc1 [Compound 30, 2,4-Bis(1-imidazolyl)-6-(4-phenyl-1-piperazinyl)-1,3,5-triazine]
> 100000 nM	43 nM	c1cn(-c2nc(N3CCSCC3)nc(-n3ccnc3)n2)cn1 [Compound 31, 2,4-Bis (1-imidazolyl)-6-thiomorpholino-1,3,5-triazine]
16000 nM	29 nM	CN(c1ccccc1)c1nc(-n2ccnc2)nc(-n2ccnc2)n1 [Compound 32, 2,4-Bis(1-imidazolyl)-6-(N-methyl-N-phenylamino)-1,3,5-triazine]
12000 nM	14 nM	CCCCN(CCCC)c1nc(-n2ccnc2)nc(-n2ccnc2)n1 [Compound 36, 2-(Di-n-butylamino)-4,6-bis(1-imidazolyl)-1,3,5-triazine]
37000 nM	20 nM	c1ccc(C2CCN(c3nc(N4CCSCC4)nc(-n4ccnc4)n3)CC2)cc1 [Compound 39, 2-(1-Imidazolyl)-4-(4-phenylpiperidino)-6-thiomorpholino-1,3,5-triazine]
66000 nM	24 nM	CCOC(=O)C1CCN(c2nc(N3CCOCC3)nc(-n3ccnc3)n2)CC1 [Compound 40, 2-(4-Ethoxycarbonylpiperidino)-4-(1-imidazolyl)-6-morpholino-1,3,5-triazine]
> 100000 nM	20 nM	Fc1ccc(N2CCN(c3nc(N4CCOCC4)nc(-n4ccnc4)n3)CC2)cc1 [Compound 43, 2-[4-(4-Fluorophenyl)-1-piperazinyl]-4-(1-imidazolyl)-6-morpholino-1,3,5-triazine]
> 100000 nM	–	CN(C)c1nc(N(C)C)nc(N(C)C)n1 [HMM, hexamethylmelamine, reference compound]

SMILES	IC50 [1]	IC50 [2]
CCC1(c2ccc(N)cc2)CCC(=O)NC1=O (centres unmarked) [AG, aminoglutethimide, reference compound]	66000 nM	–
CC(C)(C)OC(=O)C1CCCN1c1nc(N2CCOCC2)nc(-n2ccnc2)n1 (centres unmarked) [Compound 41, 2-(2-tert-Butoxycarbonyl-1-pyrrolidinyl)-4-(1-imidazolyl)-6-morpholino-1,3,5-triazine]	> 100000 nM	37 nM
CC1CN1c1nc(N2CCOCC2)nc(-n2ccnc2)n1 (centres unmarked) [Compound 42, 2-(1-Imidazolyl)-4-(2-methyl-1-aziridinyl)-6-morpholino-1,3,5-triazine]	> 100000 nM	57 nM
